This is an account of results in US20240270741A1 (Cogent Biosciences, Inc., priority 2023, published 2024).

The target in the first test is FGFR2 (Homo sapiens, UniProt P21802). The test can be described thus: FGFR wild type enzyme assay (HTRF KinEASE-TK), FGFR2. To be noted: Enz FGFR2 (nM).
FGFR2, sequence (P21802 399-821 limits assumed): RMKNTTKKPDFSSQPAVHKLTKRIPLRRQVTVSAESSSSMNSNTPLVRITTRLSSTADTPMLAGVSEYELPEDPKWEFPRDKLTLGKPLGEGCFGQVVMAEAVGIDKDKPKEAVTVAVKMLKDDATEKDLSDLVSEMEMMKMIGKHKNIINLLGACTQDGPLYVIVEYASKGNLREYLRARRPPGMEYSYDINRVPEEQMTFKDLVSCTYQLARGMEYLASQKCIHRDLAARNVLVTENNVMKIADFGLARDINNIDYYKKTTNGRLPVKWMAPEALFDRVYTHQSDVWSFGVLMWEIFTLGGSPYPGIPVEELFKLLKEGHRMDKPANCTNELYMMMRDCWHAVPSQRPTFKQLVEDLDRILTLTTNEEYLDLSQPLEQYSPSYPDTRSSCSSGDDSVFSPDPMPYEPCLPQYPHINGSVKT
For the compound `Cc1c(-c2cc(Sc3ccc(Cl)cc3C#N)c3c(C#N)cnn3c2)cnn1C1CCNCC1` [Example 123, 4-(4-chloro-2-cyano-phenyl)sulfanyl-6-[5-methyl-1-(4-piperidyl)pyrazol-4-yl]pyrazolo[1,5-a]pyridine-3-carbonitrile], the IC50 (commonly the concentration that gives 50% inhibition) is 9 nM.

The compound `N#Cc1cnn2cc(-c3cnn([C@H]4CCCNC4)c3)cc(Sc3cc(C(F)(F)F)ccn3)c12` [Example 64, 6-[1-[(3S)-3-piperidyl]pyrazol-4-y1]-4-[[4-(trifluoromethyl)-2-pyridyl]sulfanyl]pyrazolo[1,5-a]pyridine-3-carbonitrile] came in with an IC50 of 61 nM.

On to `Cc1c(-c2cc(Sc3ncccc3F)c3c(C#N)cnn3c2)cnn1[C@H]1CCCNC1` [Example 86, 4-[(3-fluoro-2-pyridyl)sulfanyl]-6-[5-methyl-1-[(3S)-3-piperidyl]pyrazol-4-yl]pyrazolo[1,5-a]pyridine-3-carbonitrile], for which the IC50 came to 2 nM.

Compound `Cc1c(-c2cc(Sc3ncccc3F)c3c(C#N)cnn3c2)cnn1[C@H]1CCNC1` [Example 103] yielded an IC50 of 4 nM.

The same test, now with this note: Enz FGFR2 (nM), FGFR2 wild type enzyme.
As for `Cc1c(-c2cc(Sc3ncccc3F)c3c(C#N)cnn3c2)cnn1[C@H]1CC[C@@H](NC(=O)CO)CC1` [Example 228, N-((1s,4s)-4-(4-(3-cyano-4-((3-fluoropyridin-2-yl)thio)pyrazolo[1,5-a]pyridin-6-yl)-5-methyl-1H-pyrazol-1-yl)cyclohexyl)-2-hydroxyacetamide], it took 1 nM to reach half-maximal inhibition (IC50).

For the compound `Cc1c(-c2cc(Sc3ccccc3F)c3c(C#N)cnn3c2)cnn1[C@@H]1CCCNC1` [Example 136, (R)-4-((2-fluorophenyl)thio)-6-(5-methyl-1-(piperidin-3-yl)-1H-pyrazol-4-yl)pyrazolo[1,5-a]pyridine-3-carbonitrile], the IC50 worked out at 4 nM.

Compound `Cc1c(-c2cc(Sc3ncccc3F)c3c(C#N)cnn3c2)cnn1C1CCN(S(C)(=O)=O)CC1` [Example 153, 4-[(3-fluoro-2-pyridyl)sulfanyl]-6-[5-methyl-1-(1-methylsulfonyl-4-piperidyl)pyrazol-4-yl]pyrazolo[1,5-a]pyridine-3-carbonitrile] registered an IC50 of 2 nM.

`CNC1CC2(C1)CC(n1ncc(-c3cc(Sc4ncccc4F)c4c(C#N)cnn4c3)c1C)C2` (stereo not shown) [Example 211, 4-((3-fluoropyridin-2-yl)thio)-6-(5-methyl-1-(6-(methylamino)spiro[3.3]hep-tan-2-yl)-1H-pyrazol-4-yl)pyrazolo[1,5-a]pyridine-3-carbonitrile] gave an IC50 of 1 nM.

Compound `Cc1c(-c2cc(Sc3ccc(F)cc3C#N)c3c(C#N)cnn3c2)cnn1C1CCN(C)CC1` [Example 230, 4-((2-cyano-4-fluorophenyl)thio)-6-(5-methyl-1-(1-methylpiperidin-4-yl)-1H-pyrazol-4-yl)pyrazolo[1,5-a]pyridine-3-carbonitrile] registered an IC50 of 1 nM.

Take `CO[C@@H](C)CN1CCC(n2ncc(-c3cc(Sc4ncccc4F)c4c(C#N)cnn4c3)c2C)CC1` [Example 149, (S)-4-((3-fluoropyridin-2-yl)thio)-6-(1-(1-(2-methoxypropyl)piperidin-4-yl)-5-methyl-1H-pyrazol-4-yl)pyrazolo[1,5-a]pyridine-3-carbonitrile]: the IC50 came out at 2 nM.

As for `CCN(C)C1CCC(n2ncc(-c3cc(Sc4ncccc4F)c4c(C#N)cnn4c3)c2C)CC1` (stereo not shown) [Example 172, 6-(1-(4-(ethyl(methyl)amino)cyclo-hexyl)-5-methyl-1H-pyrazol-4-yl)-4-((3-fluoropyridin-2-yl)thio)pyrazolo[1,5-a]pyridine-3-carbonitrile], the IC50 was 1 nM.

Compound `Cc1c(-c2cc(Sc3ncccc3F)c3c(C#N)cnn3c2)cnn1C[C@@H]1CCCNC1` [Example 150, (R)-4-((3-fluoropyridin-2-yl)thio)-6-(5-methyl-1-(piperidin-3-ylmethyl)-1H-pyrazol-4-yl)pyrazolo[1,5-a]pyridine-3-carbonitrile] returned an IC50 of 4 nM.

In the case of `Cc1c(-c2cc(Sc3ccccc3C#N)c3c(C#N)cnn3c2)cnn1C[C@@H]1CCCNC1` [Example 170, 4-(2-cyanophenyl)sulfanyl-6-[5-methyl-1-[[(3R)-3-piperidyl]methyl]pyrazol-4-yl]pyrazolo[1,5-a]pyridine-3-carbonitrile], the IC50 worked out at 72 nM.

In the case of `CC(=O)N1CCC[C@H](n2ncc(-c3cc(Sc4ncccc4F)c4c(C#N)cnn4c3)c2C)C1` [Example 166, (S)-6-(1-(1-acetylpiperidin-3-yl)-5-methyl-1H-pyrazol-4-yl)-4-((3-fluoropyridin-2-yl)thio)pyrazolo[1,5-a]pyridine-3-carbonitrile], the IC50 turned out to be 2 nM.

Take `Cc1c(-c2cc(Sc3ncccc3F)c3c(C#N)cnn3c2)cnn1[C@H]1CC[C@@](C)(N)CC1` [Example 282, 6-(1-((1s,4s)-4-amino-4-methylcyclohexyl)-5-methyl-1H-pyrazol-4-yl)-4-((3-fluoropyridin-2-yl)thio)pyrazolo[1,5-a]pyridine-3-carbonitrile]: the IC50 came out at 1 nM.

Staying with this test, now noted: Enz FGFR2 (nM), FGFR2 wild type enzyme assay.
`CNc1ccc(-c2cc(Sc3ccc(F)cc3C#N)c3c(C#N)cnn3c2)cn1` [Example 575, 4-((2-cyano-4-fluorophenyl)thio)-6-(6-(methylamino)pyridin-3-yl)pyrazolo[1,5-a]pryidine-3-carbonitrile] returned a half-maximal inhibitory concentration (IC50) of 5 nM.

For `Cc1nn([C@H]2CC[C@H](O)CC2)cc1-c1cc(Sc2ccc(F)cc2C#N)c2c(C#N)cnn2c1` [Example 443, 4-((2-cyano-4-fluorophenyl)thio)-6-(1-((1r,4r)-4-hydroxycyclohexyl)-3-methyl-1H-pyrazol-4-yl)pyrazolo[1,5-a]pyridine-3-carbonitrile], the IC50 was found to be 4 nM.

Consider `Cc1c(-c2cc(Sc3ccc(F)cc3C#N)c3c(C#N)cnn3c2)cnn1C1CCOCC1` [Example 666, 4-((2-cyano-4-fluorophenyl)thio)-6-(5-methyl-1-(tetrahydro-2H-pyran-4-yl)-1H-pyrazol-4-y)pyrazolo[1,5-a]pyridine-3-carbonitrile], for which the half-maximal inhibitory concentration (IC50) stood at 0.6 nM.

As to `CN1CCN(c2ccc(-c3cc(Sc4ncccc4F)c4c(C#N)cnn4c3)cc2)CC1` [Example 467, 4-((3-fluoropyridin-2-yl)thio)-6-(4-(4-methylpiperazin-1-yl)phenyl)pyrazolo[1,5-a]pyridine-3-carbonitrile], half-maximal inhibition (IC50) was put at 0.4 nM.

The compound `CN1CC(n2cc(-c3cc(Sc4ncccc4F)c4c(C#N)cnn4c3)cn2)CCC1=O` (stereo not shown) [Example 505, 4-((3-fluoropyridin-2-yl)thio)-6-(1-(1-methyl-6-oxopiperidin-3-yl)-1H-pyrazol-4-yl)pyrazolo[1,5-a]pyridine-3-carbonitrile] showed an IC50 of 3 nM.

For `N#Cc1ccccc1Sc1cc(-c2cnn([C@@H]3CCNC(=O)C3)c2)cn2ncc(C#N)c12` [Example 591, (R)-4-((2-cyanophenyl)thio)-6-(1-(2-oxopiperidin-4-yl)-1H-pyrazol-4-yl)pyrazolo[1,5-a]pyridine-3-carbonitrile], the IC50 turned out to be 0.4 nM.

On to `Cc1c(-c2cc(Sc3ccccc3C#N)c3c(C#N)cnn3c2)cnn1C1CCN(C(=O)C(C)(C)O)CC1` [Example 589, 4-((2-cyanophenyl)thio)-6-(1-(1-(2-hydroxy-2-methylpropanoyl)piperidin-4-yl)-5-methyl-1H-pyrazol-4-yl)pyrazolo[1,5-a]pyridine-3-carbonitrile], for which the IC50 is 1 nM.

With `COC(=O)N[C@H]1CC[C@@H](n2ncc(-c3cc(Sc4ccc(F)cc4C#N)c4c(C#N)cnn4c3)c2C)CC1` [Example 362, methyl ((1s,4s)-4-(4-(3-cyano-4-((2-cyano-4-fluorophenyl)thio)pyrazolo [1,5-a]pyridin-6-yl)-5-methyl-1H-pyrazol-1-yl)cyclohexyl)carbamate], the midpoint of inhibition, the IC50, lay at 1 nM.

`C[C@@H](O)C(=O)N1CCC[C@@H](n2cc(-c3cc(Sc4ccccc4C#N)c4c(C#N)cnn4c3)cn2)C1` [Example 563, 4-((2-cyanophenyl)thio)-6-(1-((R)-1-((R)-2-hydroxypropanoyl)piperidin-3-yl)-1H-pyrazol-4-yl)pyrazolo[1,5-a]pyridine-3-carbonitrile] returned an IC50 of 1 nM.

The compound `CN1CCC(n2cc(-c3cc(Sc4ncccc4F)c4c(C#N)cnn4c3)nn2)CC1` [Example 430, 4-((3-fluoropyridin-2-yl)thio)-6-(1-(1-methylpiperidin-4-yl)-1H-1,2,3-triazol-4-yl)pyrazolo[1,5-a]pyridine-3-carbonitrile] registered an IC50 of 10 nM.

Consider `N#Cc1cnn2cc(-c3cnn(C[C@@H](O)CO)c3)cc(Sc3ncccc3F)c12` [Example 522, (R)-6-(1-(2,3-dihydroxypropyl)-1H-pyrazol-4-yl)-4-((3-fluoropyridin-2-yl)thio)pyrazolo[1,5-a]pyridine-3-carbonitrile], for which the IC50 is 2 nM.

For `Cc1c(-c2cc(Sc3ccc(F)cc3C#N)c3c(C#N)cnn3c2)cnn1[C@H]1CCCNC1` [Example 333, (S)-4-((2-cyano-4-fluorophenyl)thio)-6-(5-methyl-1-(piperidin-3-yl)-1H-pyrazol-4-yl)pyrazolo[1,5-a]pyridine-3-carbonitrile], the IC50 was determined as 1 nM.

For the compound `N#Cc1ccccc1Sc1cc(-c2cnn([C@H]3CCCC[C@H]3O)c2)cn2ncc(C#N)c12` [Example 599, 4-((2-cyanophenyl)thio)-6-(1-((1S,2R)-2-hydroxycyclohexyl)-1H-pyrazol-4-yl)pyrazolo[1,5-a]pyridine-3-carbonitrile], the IC50 amounted to 2 nM.

As for `CC(=O)N1CCC(n2ncc(-c3cc(Sc4nc(C)c(Cl)cc4F)c4c(C#N)cnn4c3)c2C)CC1` [Example 408, 6-(1-(1-acetylpiperidin-4-yl)-5-methyl-1H-pyrazol-4-yl)-4-((5-chloro-3-fluoro-6-methylpyridin-2-yl)thio)pyrazolo[1,5-a]pyridine-3-carbonitrile], the IC50 is 2 nM.

Regarding `Cc1c(-c2cc(Sc3ccc(F)cc3C#N)c3c(C#N)cnn3c2)cnn1[C@H]1CCN(C)C(C)(C)C1` [Example 387, (S)-4-((2-cyano-4-fluorophenyl)thio)-6-(5-methyl-1-(1,2,2-trimethylpiperidin-4-yl)-1H-pyrazol-4-yl)pyrazolo[1,5-a]pyridine-3-carbonitrile], the IC50 is 1 nM.

`Cc1c(-c2cc(Sc3ccccc3C#N)c3c(C#N)cnn3c2)cnn1[C@@H]1CCNC(=O)C1` [Example 643] registered an IC50 of 3 nM.
